Patent publication US5166208A, “Fredericamycin A derivatives” (Boston College, priority 1991, dated 1992)
≈ marks a conversion by molar mass, not a printed value.

Experiments:
human lung (A549) = experiment: In vitro microdilution inhibition, human lung A549; format: cell-based; conditions: A549, 72 hours, 50% of cells killed
Description: (§1) As shown in Table III the compounds of the present invention exert an in vitro antitumor effect. The following cells lines were employed: human lung (A549); resistant human lung with low topo II activity (A549-VP); murine melanoma (B16); human colon tumor (HCT116); human colon tumor with elevated p170 levels (HCTVM); human colon tumor with low topo II activity (HCTVP); and another human colon carcinoma cell line (Moser). In the Table, the designation "NT" indicates the compound was not tested against the specified cell line. The cell lines were maintained in continuous culture at 37°, 5% CO2 and high humidity. Cells were harvested in log phase growth and suspended at concentration of 25,000 cells/mL. A […] aliquot was then added to each well (i.e., 3,750 cells per well) of a 96-well flat bottom plate and the cells were allowed to attach over a 24 hour period. After this 24 hour incubation, a 50 μL sample of the specified compound was added to the first (top) well of each column, and the remaining wells of each column serially diluted, 1:4, and allowed to incubate for 72 hours at 37° C., 5% CO2 and high humidity. Following incubation, 50 μL of freshly prepared stain solution was added to each well. After a 3 hour incubation at room temperature, absorbance was read at 450 nm on a microplate reader to determine the compound concentration at which 50% of the cells were killed, such concentration referred to as the "IC50 ".

[1] = tested on: human colon tumor (HCT116); experiment: In vitro microdilution inhibition, HCT116; format: cell-based; conditions: HCT-116, 72 hours, 50% of cells killed
Description: as §1

murine melanoma (B16) = experiment: In vitro microdilution inhibition, B16; format: cell-based; conditions: Mus musculus; B16, 72 hours, 50% of cells killed
Description: as §1

[2] = tested on: human colon tumor with low topo II activity (HCTVP); experiment: In vitro microdilution inhibition, HCTVP; format: cell-based; conditions: 72 hours, 50% of cells killed
Description: as §1

[3] = tested on: human colon carcinoma cell line (Moser); experiment: In vitro microdilution inhibition, Moser; format: cell-based; conditions: 72 hours, 50% of cells killed
Description: as §1

p388 murine leukemia = experiment: In vivo activity against p388 murine leukemia in an acute mouse model; conditions: for AWC (average weight change per mouse): before treatment to day five
Description: CDF1 mice of both sexes weighing between 16 and 25 gm. were used, with a 2 gm. weight range and same sex and source used per experiment. BDF1 mice also were used with the same weight, sex and source parameters. Control and test animals were injected interperitoneally with suspension of 1×10^6 p388 murine leukemia cells (0.5 mL dose) on day 0. Groups of 4-6 mice were used for each dosage amount they were treated with 5 doses on day one. A group of ten saline treated control mice was included in each set of experiments. A 30 day protocol was employed with mean survival time in days being determined for each group of mice with the number of survivors at the end of the 30 day period being noted. The mice were weighed before treatment and again on day five. The values listed for average weight change (AWC) is the average weight change per mouse at the specified dose. The change in weight was taken as a measure of drug toxicity. A loss in weight of up to 2 grams is not considered excessive. The results were determined in terms of % T/C which is the ratio of the mean survival time of the treated group to the mean survival time of the saline treated group times 100.

[4] = tested on: human colon tumor with elevated p170 levels (HCTVM); experiment: In vitro microdilution inhibition, HCTVM; format: cell-based; conditions: 72 hours, 50% of cells killed
Description: as §1

[5] = tested on: resistant human lung with low topo II activity (A549-VP); experiment: In vitro microdilution inhibition, resistant human lung A549-VP; format: cell-based; conditions: A549VP, 72 hours, 50% of cells killed
Description: as §1

In the case of `O=C1C=CC(=O)c2c(O)c3c(c(O)c21)C(=O)C1(CCc2cccc(O)c21)C3=O` [Example 3, 2',3'-Dihydro-7'-hydroxy-1H-indene-1'-spiro-2-[4,9-dihydroxy-benz[f]indene-1,3,5,8-tetrone]], the IC50 (human lung (A549)) is reported as 1.14 µg/mL (≈ 3.03 µM), the IC50 [1] is reported as 1.13 µg/mL (≈ 3 µM) and the IC50 (murine melanoma (B16)) is reported as 0.88 µg/mL (≈ 2.34 µM). It also gave an IC50 [2] of 0.86 µg/mL (≈ 2.29 µM) and an IC50 [3] of 3.07 µg/mL (≈ 8.16 µM).

`CCOC(OCC)c1cc2cc3c(c(OCOC)c2c(OC)n1)C1(CC3)C(=O)c2c(O)c3c(c(O)c2C1=O)C(=O)C=CC3=O` [Example 9, 6',7'-Dihydro-1-methoxy-9'-(methoxymethoxy-3-(diethoxymethyl)-spiro[2H-benz[f]indene-2,8'-8H]cyclopent[g]isoquinoline]-1,3,5,8-tetrone] showed an IC50 (human lung (A549)) of 4.42 µg/mL (≈ 7.32 µM), an IC50 [1] of 0.71 µg/mL (≈ 1.18 µM) and an IC50 (murine melanoma (B16)) of 0.78 µg/mL (≈ 1.29 µM). The IC50 [2] was 2.38 µg/mL (≈ 3.94 µM) and the IC50 [3] was 4.4 µg/mL (≈ 7.29 µM).

`CCNC1=CC(=O)c2c(O)c3c(c(O)c2C1=O)C(=O)C1(CCc2cccc(O)c21)C3=O` (stereo not drawn) [Example 15, 2',3'-Dihydro-6-ethylamino-7'-hydroxy-1H-indene-1'-spiro-2-[4,9-dihydroxy-2H-benz[f]-indene-1,3,5,8-tetrone]] was tested, and the IC50 (human lung (A549)) was < 0.03 µg/mL, the IC50 [1] was 0.03 µg/mL (≈ 0.0715 µM) and the IC50 (murine melanoma (B16)) was 0.03 µg/mL (≈ 0.0715 µM). For the same compound, the “AWC (average weight change per mouse)” value (p388 murine leukemia; CDF1 (mixed sex), 5 mg/kg) was -0.1, the “AWC (average weight change per mouse)” value (p388 murine leukemia; CDF1 (mixed sex), 15 mg/kg) was -0.2 and the “% T/C (mean survival time treated/control)” value (p388 murine leukemia; CDF1 (mixed sex), 45 mg/kg) was “Toxic”. The response vs control in vivo at 5 mg/kg (p388 murine leukemia; Mus musculus, P388, 720 h, CDF1 (mixed sex), 5 mg/kg, read-out: % T/C (mean survival time treated/control)) was 100%, the response vs control in vivo at 15 mg/kg (p388 murine leukemia; Mus musculus, P388, 720 h, CDF1 (mixed sex), 15 mg/kg, read-out: % T/C (mean survival time treated/control)) was 115% and the IC50 [4] was 0.03 µg/mL (≈ 0.0715 µM). It also gave an IC50 [2] of 0.05 µg/mL (≈ 0.119 µM) and an IC50 [5] of 0.05 µg/mL (≈ 0.119 µM).

Work on `O=C1C=CC(=O)c2c(O)c3c(c(O)c21)C(=O)C1(CCc2ccccc21)C3=O` [Example 4, 2',3'-Dihydro-1H-indene-1'-spiro-2-[4,9-dihydroxy-2H-benz[f]-indene-1,3,5,8-tetrone]] yielded an IC50 (human lung (A549)) of 1.5 µg/mL (≈ 4.16 µM), an IC50 [1] of 0.3 µg/mL (≈ 0.833 µM) and an IC50 (murine melanoma (B16)) of 1 µg/mL (≈ 2.78 µM). It also gave an IC50 [4] of 0.3 µg/mL (≈ 0.833 µM), an IC50 [2] of 0.4 µg/mL (≈ 1.11 µM) and an IC50 [5] of 2.3 µg/mL (≈ 6.38 µM).

With `COCOc1cccc2c1C1(CC2)C(=O)c2c(O)c3c(c(O)c2C1=O)C(=O)C(NCCO)=CC3=O` (stereo not drawn) [Example 16, 2',3'-Dihydro-7'-(methoxymethoxy)-1H-indene-1'-spiro-[4,9-dihydroxy-6-(2-hydroxyethylamino)-2H-benz[f]indene-1,3,5,8-tetrone]] the IC50 (human lung (A549)) was < 0.03 µg/mL, the IC50 [1] was 0.05 µg/mL (≈ 0.104 µM) and the IC50 (murine melanoma (B16)) was 0.03 µg/mL (≈ 0.0626 µM). The “AWC (average weight change per mouse)” value (p388 murine leukemia; CDF1 (female only), 3.3 mg/kg) was -0.1, the “AWC (average weight change per mouse)” value (p388 murine leukemia; CDF1 (female only), 10 mg/kg) was -1.1 and the “AWC (average weight change per mouse)” value (p388 murine leukemia; CDF1 (female only), 30 mg/kg) was -2.6. For the same compound, the response vs control in vivo at 3.3 mg/kg (p388 murine leukemia; Mus musculus, P388, 720 h, CDF1 (female only), 3.3 mg/kg, read-out: % T/C (mean survival time treated/control)) was 95%, the response vs control in vivo at 10 mg/kg (p388 murine leukemia; Mus musculus, P388, 720 h, CDF1 (female only), 10 mg/kg, read-out: % T/C (mean survival time treated/control)) was 95% and the response vs control in vivo at 30 mg/kg (p388 murine leukemia; Mus musculus, P388, 720 h, CDF1 (female only), 30 mg/kg, read-out: % T/C (mean survival time treated/control)) was 130%. For the same compound, the IC50 [4] was 0.06 µg/mL (≈ 0.125 µM), the IC50 [2] was 0.04 µg/mL (≈ 0.0834 µM) and the IC50 [5] was 0.04 µg/mL (≈ 0.0834 µM).

Compound `CCSC1=C(SCC)C(=O)c2c(O)c3c(c(O)c2C1=O)C(=O)C1(CCc2cccc(OCOC)c21)C3=O` [Example 30] has an IC50 (human lung (A549)) of 7 µg/mL (≈ 12.9 µM), an IC50 [1] of 1.2 µg/mL (≈ 2.22 µM) and an IC50 (murine melanoma (B16)) of 1.8 µg/mL (≈ 3.33 µM). The IC50 [4] was 3 µg/mL (≈ 5.55 µM), the IC50 [2] was 2.2 µg/mL (≈ 4.07 µM) and the IC50 [5] was > 16 µg/mL.
